Our source for the melting point values is a melting point compilation (Tetko et al.; mined from patent text by program, amines drawn as free bases though some values may be those of a salt).

SMILES strings stand for the structures.

As to `COc1c(N2CC(C)C(N)C(C)(C)C2)c(F)cc2c(=O)c(C(=O)O)cn(C3CC3)c12` (stereo not drawn), the melting point is 218 to 220 °C.
Consider `COC(=O)C(CCON1C(=O)c2ccccc2C1=O)NC(=O)Cc1ccccc1` (stereo not drawn), for which the melting point lay in the range of 138 to 139 °C.
In turn, `COC1(c2ccc3ccccc3c2)OOC12C1CC3CC(C1)CC2C3` (stereo not drawn) gave a melting point of 116 °C.
As for `COc1ccc(Cn2c(Cl)nc3c(-c4ccc(Cl)o4)ncnc32)cc1`, the melting point is 156 to 157 °C.
Consider `CCOC(=O)COc1ccc(O)c(Cl)c1`, for which the melting point was 80 to 82 °C.
With `CC(C(=O)O)c1ccc(OCCNC(=O)C2Cc3ccccc3N2S(=O)(=O)c2ccc(-c3cc(C(F)(F)F)ccc3Cl)cc2)cc1` (stereo not drawn), the melting point was 91 to 100 °C.
In the case of `CCOC(=O)NC(=O)CC(=O)NC(=O)OCC`, the melting point was 177 to 178 °C.
Next, `O=C(N[C@H](CO)c1ccccc1)c1[nH]c2ccc(Cl)cc2c1S(=O)(=O)c1ccccc1`: 155 to 160 °C; `COc1cc2c(cc1OC)-c1c(C#N)sc(=O)n1CC2`: 205 to 207 °C.
`Cc1ccc(C(=O)c2ccc(C)cc2F)c(F)c1` showed a melting point of 84 to 85.5 °C.
The molecule `CC(=O)N[C@@H](C)COc1cnc(-c2nc3ccc(OCC4CC4)cc3o2)c(F)c1` returned a melting point of 158 to 159 °C.
Next, `CS(=O)(=O)c1ccc(-n2cc(-c3ccc4ccccc4c3)nc2-c2ccc(Cl)cc2)cc1`: 204 to 206 °C; `Nc1ncc(Cl)nc1Cl`: 117 to 118 °C; `O=C(OC(=O)c1cc2cc(O)ccc2s1)c1ccccc1`: 235 to 236 °C.
For `O=C(Nc1cccc2c3c(oc12)CCS(=O)C3)c1c(Cl)cccc1Cl` (stereo not drawn), the melting point was above 250 °C.
On to `CCC1(CCCN2CCN(c3cccc(Cl)c3)CC2)C(=O)Nc2ccc(Cl)cc21` (stereo not drawn), for which the melting point was in the range of 117 to 119 °C.
For the molecule `C=CCOc1cc([N+](=O)[O-])ccc1[N+](=O)[O-]`, the melting point lay in the range of 66.5 to 68 °C.
Next, `CC12CCC(C(=O)O)=CC1=CCC1C2CCC2(C)C(C(=O)Cc3ccccc3)CCC12` (stereo not drawn): 258 °C; `C=Cc1cn(-c2c(Cl)cc(C(F)(F)F)cc2Cl)c2ccccc12`: 85 to 87 °C.
The molecule `Cc1c(NC(=O)c2ccc(-c3ccc(F)cc3)cc2)ccc2cc(CN3CCC(CCCC(N)=O)CC3)cnc12` came in with a melting point of 232 to 234 °C.
`CC1(C)CCC(C)(C)c2cc(-c3ccc4cc(C(=O)O)cc(O)c4c3)ccc21` returned a melting point of 299 °C.
`O=C(CCc1ccc2cccc(O)c2n1)NO` returned a melting point of 165 to 167 °C.
In turn, `Cn1c(Cn2nc(CC(=O)O)c3ccccc3c2=O)nc2ccccc21` came in with a melting point of 230 °C.
Next, `Cn1c([N+](=O)[O-])cnc1C=O`: 90 to 94 °C.
With `CC1(C)CC(=O)N(CC(COc2ccc(-c3ccc(C#N)cc3)cc2)N(O)C=O)C(=O)C1` (stereo not drawn), the melting point was 121 °C.
On to `CNC(=O)NCc1cncn1C1c2ccccc2CCC1(C)C` (stereo not drawn), for which the melting point was found to be 120 °C.
With `CC(C)(C)OC(=O)N[C@@H](CC(N)=O)C(=O)N1CCN(Cc2ccccc2)CC1`, the melting point lay in the range of 98 to 100 °C.
In the case of `CC(=O)OC1CSC(Oc2ccc(C)nc2)C(OC(C)=O)C1OC(C)=O` (stereo not drawn), the melting point amounted to 130 °C.
`CCCOc1cc(CCCOc2c(CC(=O)O)cccc2OC)n(Cc2ccc(C(F)(F)F)cc2)n1` displayed a melting point of 122 to 123 °C.
`CCN(CC)c1ncnc2nc(-c3ccncc3)[nH]c12` had a melting point of 260 to 262 °C.
`C=C(C)Cc1c(C)c2c(c(C)c1O)CCN2C=O` returned a melting point of 132 to 134 °C.
In the case of `CCn1c(N)c(C(N)=O)c(=O)c2cnc(Nc3ccc(O)cc3)nc21`, the melting point is above 260 °C.
In the case of `COc1ccccc1COc1cc2c(cc1OC)C(=O)N(Cc1ccccc1OC)CC2` it was 133 to 134 °C; in that of `O=S1(=O)c2ccccc2C(CCCl)(CCCl)c2ccccc21`, 186 to 190 °C.
In the case of `CCOC(=O)C(C(=O)OCC)n1cccc1C(=O)C(Cl)(Cl)Cl`, the melting point fell in the range of 67 to 69 °C.
Take `Cc1ccc(S(=O)(=O)NC(=S)NC23CC4CC(CC(C4)C2)C3)cc1`: the melting point lay within 170 to 173 °C.
Regarding `NCCC(=O)N(N)S(=O)(=O)c1ccccc1`, the melting point fell in the range of 135 to 137 °C.
In the case of `Cc1nc(C)c(-c2ccnc(Nc3cccnc3)n2)s1`, the melting point fell in the range of 159 to 162 °C.
`CS(=O)(=O)Nc1nn(CCN2CCCCC2)cc1-c1ccccc1` yielded a melting point of 121 °C.
`CCC(c1cc2c(-c3ccc(C(F)(F)F)n(C)c3=O)c(F)cc(Cl)c2o1)S(C)=O` (stereo not drawn) showed a melting point of 125 to 127 °C.
Regarding `CC(=O)Nc1ccc(-c2ccccc2C#N)cc1C`, the melting point lay within 135 to 143 °C.
Next, `CCCCCCCCCCCCCCCCCCOc1cc(OCCCBr)cc(N(CC(=O)OC)CC(=O)OC)c1`: 67 to 69 °C.
With `O=C(CCCCCl)NC1CCCCC1`, the melting point was 70 to 71 °C.
Take `CCOC(=O)C(=O)C(C#N)c1ccc(Cl)cc1` (stereo not drawn): the melting point was in the range of 135 to 136 °C.
Regarding `CCOC(=O)c1ccc(OCCc2c[nH]cn2)cc1`, the melting point lay in the range of 160 to 164 °C.
Next, `Cc1ccccc1N1CCN(CCn2c(=O)[nH]c3ccsc3c2=O)CC1`: 212 to 214 °C.
For `Fc1cccc2nc(S)sc12`, the melting point was determined as 193 °C.
In the case of `O=C(CN1CCC(Oc2ccccc2)CC1)Nc1ccc2c(c1)OCC(=O)N2` it was 206 to 208 °C.
`COc1c(Cl)ccc(-c2cc(N)c(Cl)c(C(=O)NOCc3ccco3)n2)c1F`: the melting point fell in the range of 161 to 164 °C.
For `O=C(O)c1cn(C2CC2)c2c(F)c(N3CCOC(CN4CCNCC4)C3)c(F)cc2c1=O` (stereo not drawn), the melting point amounted to 260 °C.
Turning to `Cn1c(=S)ccc2ccccc21`, the melting point amounted to 114 °C.
Consider `CN=C1SC2Cc3ccc(S(C)(=O)=O)cc3C2(O)N1C` (stereo not drawn), for which the melting point was found to be 158 °C.
For `CC(=O)c1cnn(C)c1S(N)(=O)=O`, the melting point lay in the range of 153 to 162 °C.
For `COC(=O)[C@H](Cc1ccc(OCCc2nc(-c3ccccc3)oc2C)cc1)Nc1ccccc1C(=O)c1ccccc1`, the melting point lay in the range of 55 to 60 °C.
Regarding `CC(C)(C)C(NC(=O)c1cc(Cl)cc(Cl)c1)Nc1c(Nc2cccnc2)c(=O)c1=O` (stereo not drawn), the melting point fell in the range of 260 to 262 °C.
In turn, `Cc1nc2c(c3c1[nH]c1ccccc13)C(=NO)CC(C)C2` (stereo not drawn) had a melting point of 282 to 283 °C.
Next, `CN(CC(=O)C(CCCCN)NC(=O)c1ccccc1)C(=O)N1CCCC1C(=O)O` (stereo not drawn): 130 to 133 °C; `NS(=O)(=O)c1ccc(-n2nc(C(=O)O)cc2-c2ccccc2)cc1`: 188 to 191 °C; `COC(=O)CN1C(=O)c2ccccc2Nc2ccc(OCc3cccc4ccccc34)cc21`: 85 to 92 °C.
In the case of `CN(Cc1ccc(-c2ccc(O)c(Br)c2)cc1)C(=O)c1cn(Cc2ccccc2)c2ccccc12` it was 164 to 170 °C; in that of `CCCc1c(C(=O)NCc2ccc3cc(OCC(=O)O)ccc3c2)cnn1-c1ccccc1`, 175 to 177 °C; in that of `CCC(=O)Nc1nc(CC(=O)Nc2nnc(C(C)(C)C)s2)cs1`, 210 to 212 °C.
`O=C(NC(Cc1ccc(OCc2ccccc2)cc1)C(=O)O)c1nc2ccc(-c3ccc(Cl)cc3)cc2[nH]1` (stereo not drawn) had a melting point of 260 to 261 °C.
As to `Oc1nc(-c2ccc(Cl)cc2)nc2c1CCC2`, the melting point amounted to 282 °C.
In the case of `Cc1cc(NS(=O)(=O)c2ccc(NCNc3ccc(S(=O)(=O)Nc4cc(C)on4)cc3)cc2)no1` it was 180 to 188 °C.
Regarding `CC(C)(c1ccc(C(C)(C)c2ccc3ccccc3c2O)cc1)c1ccc2ccccc2c1O`, the melting point is 245 to 255 °C.
Next, `C=CCc1c(N2C(=O)C3=C(CCCC3)C2=O)ccc(C)c1O`: 141 to 143 °C; `CCOC(=O)CCn1c(CC(=O)OCC)nc2c(N3CCCCC3)cccc21`: 82 to 85 °C; `O=C(O)CCCCCCCCCCCOc1ccccc1OCCCC(=O)O`: 105 °C.
Next, `Cc1ccc(S(=O)(=O)NCCCCOc2ccc(-c3nnn[nH]3)cc2)cc1`: 180 to 182 °C; `O=C1N(Cc2ccc(C(F)(F)F)o2)c2ccccc2C12COc1cc3c(cc12)OCC3` (stereo not drawn): 174 to 177 °C.
With `COc1ccc(F)cc1C(C)(C)CC(O)(Cn1ncc(=O)c2ccccc21)C(F)(F)F` (stereo not drawn), the melting point is 122 to 123 °C.
`Nc1ncc(C#Cc2ccc(Cl)cc2)c(NCCO)n1` returned a melting point of 197 to 200 °C.
Next, `N#CC1(CCc2ccccc2)CCCCN1C(=O)c1ccccc1` (stereo not drawn): 65 to 67 °C.
With `CCCCN(CCCC)CCCOc1ccc(S(=O)(=O)c2c(C(C)C)n(C)c3ccccc23)cc1`, the melting point turned out to be 90 °C.
`CCOC(=O)Nc1ccc2c(c1)C(c1ccccc1Cl)=CCC(=O)N2` had a melting point of 241 °C.
As to `O=c1[nH]c2sccc2c2ccccc12`, the melting point was in the range of 266 to 268 °C.
For `C=CCSC1(C(F)(F)F)C=NC(=O)Nc2ccc(Cl)cc21` (stereo not drawn), the melting point was 147 to 149 °C.
In the case of `O=C(Cn1c(-c2ccccc2)ccc(NC(=O)OCc2ccc(C(=O)O)cc2)c1=O)NC(Cc1ccccc1)C(=O)C(F)(F)F` (stereo not drawn) it was 214 to 216 °C.
`Cc1cccc2c(=O)[nH]cc(Br)c12` gave a melting point of 201 to 210 °C.
Take `CCNS(=O)(=O)CC(=O)C1=C(C)NC(C)=C(C(=O)OC(C)C)C1c1cccc([N+](=O)[O-])c1` (stereo not drawn): the melting point lay in the range of 140 to 142 °C.
In the case of `Cc1cc(O)ccc1Nc1nc(N)ncc1Oc1ccc(Cl)cc1` it was 199 to 201 °C; in that of `CCOC(=O)C1Cc2cc(Cl)ccc2NC1=O` (stereo not drawn), 173 to 175 °C; in that of `COc1cccc(C(=O)Nc2nnn[nH]2)c1N`, 268 to 269 °C.
`Nc1cc(Cl)ccc1C(=O)NO`: the melting point was in the range of 131 to 133 °C.
For the molecule `COC(=O)CC[C@@H](C(N)=O)N1Cc2c(OCc3ccc(CN4CCOCC4)cc3)cccc2C1=O`, the melting point fell in the range of 66 to 68 °C.
In the case of `CCN(C(=O)Cn1c(=O)n(C)c2nc(-c3ccccc3)ncc21)c1ccccc1` it was 240 to 242 °C.
`COc1ccc(C(=O)Nc2c(Cl)cc(C=O)cc2Cl)cc1OC1CCCC1` registered a melting point of 96 to 98 °C.

By melting point is commonly meant the temperature of the solid-liquid transition.
